This note sets out measurements from ChEMBL document CHEMBL4613271, “Application of Atypical Acetyl-lysine Methyl Mimetics in the Development of Selective Inhibitors of the Bromodomain-Containing Protein 7 (BRD7)/Bromodomain-Containing Protein 9 (BRD9) Bromodomains” (J Med Chem, 2020).

Each structure is given as a SMILES string. pIC50, pKd, pKi: −log10 of the molar value. ≈ marks a conversion by molar mass, not a printed value. Calls of active or inactive are those of the source. No cut-off for these calls is given here.

Data set [1] concerns the target B-cell CLL/lymphoma 7 protein family member B (Homo sapiens) (UniProt Q9BQE9). Briefly: Binding affinity to BCL7B in human HuT78 cells nuclear and chromatin extracts at 10 uM incubated for 45 mins by mass spectrometry based chemoproteomic binding assay. The format is cell-based.
The target of data set [2] is B-cell CLL/lymphoma 7 protein family member A (Homo sapiens) (UniProt Q4VC05). As to the kind of experiment: Binding affinity to BCL7A in human HuT78 cells nuclear and chromatin extracts at 10 uM incubated for 45 mins by mass spectrometry based chemoproteomic binding assay. The format is cell-based.
A short description of data set [3]: Chromatographic hydrophobicity index, logD of the compound at pH 7.4 by HPLC analysis. Conditions: buffer. The format is physicochemical.
Data set [4] deals with T1, Bromodomain-containing protein 9 (Homo sapiens, UniProt Q9H8M2).
T1 sequence (Q9H8M2 whole entry): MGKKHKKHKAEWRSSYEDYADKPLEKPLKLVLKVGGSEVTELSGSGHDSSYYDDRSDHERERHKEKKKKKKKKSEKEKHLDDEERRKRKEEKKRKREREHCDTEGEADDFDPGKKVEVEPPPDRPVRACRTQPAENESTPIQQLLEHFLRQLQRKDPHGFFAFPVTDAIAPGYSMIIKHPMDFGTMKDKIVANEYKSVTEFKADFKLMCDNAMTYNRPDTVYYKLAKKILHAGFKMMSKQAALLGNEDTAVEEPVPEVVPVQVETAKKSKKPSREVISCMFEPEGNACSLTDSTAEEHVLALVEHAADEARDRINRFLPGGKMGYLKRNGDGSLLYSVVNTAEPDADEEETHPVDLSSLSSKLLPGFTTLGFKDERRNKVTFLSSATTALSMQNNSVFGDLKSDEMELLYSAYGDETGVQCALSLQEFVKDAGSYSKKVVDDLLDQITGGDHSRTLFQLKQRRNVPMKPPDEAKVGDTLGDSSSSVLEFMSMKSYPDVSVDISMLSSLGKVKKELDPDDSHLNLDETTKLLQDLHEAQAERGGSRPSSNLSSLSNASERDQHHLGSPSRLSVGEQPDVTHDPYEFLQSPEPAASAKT
Briefly: Binding affinity to BRD9 (unknown origin) N-terminal bromodomain by TR-FRET assay. (In general: Time-resolved FRET reads energy transfer from a long-lived donor to a nearby acceptor.)

Data set [5] in a line: Permeability by PAMPA. The settings on record: read-out: permeability. The class given is ADME.
Data set [6] is filed under the species Homo sapiens. As to the kind of experiment: Selectivity index, ratio of IC50 for binding affinity to BRD4 (1) (unknown origin) N-terminal bromodomain to IC50 for binding affinity to BRD9 (unknown origin) N-terminal bromodomain.
A short description of data set [7]: Solubility of compound by CLND method. The format is physicochemical.
Data set [8] has as its target T2, Bromodomain-containing protein 7 (Homo sapiens, UniProt Q9NPI1).
T2 sequence (Q9NPI1 whole entry): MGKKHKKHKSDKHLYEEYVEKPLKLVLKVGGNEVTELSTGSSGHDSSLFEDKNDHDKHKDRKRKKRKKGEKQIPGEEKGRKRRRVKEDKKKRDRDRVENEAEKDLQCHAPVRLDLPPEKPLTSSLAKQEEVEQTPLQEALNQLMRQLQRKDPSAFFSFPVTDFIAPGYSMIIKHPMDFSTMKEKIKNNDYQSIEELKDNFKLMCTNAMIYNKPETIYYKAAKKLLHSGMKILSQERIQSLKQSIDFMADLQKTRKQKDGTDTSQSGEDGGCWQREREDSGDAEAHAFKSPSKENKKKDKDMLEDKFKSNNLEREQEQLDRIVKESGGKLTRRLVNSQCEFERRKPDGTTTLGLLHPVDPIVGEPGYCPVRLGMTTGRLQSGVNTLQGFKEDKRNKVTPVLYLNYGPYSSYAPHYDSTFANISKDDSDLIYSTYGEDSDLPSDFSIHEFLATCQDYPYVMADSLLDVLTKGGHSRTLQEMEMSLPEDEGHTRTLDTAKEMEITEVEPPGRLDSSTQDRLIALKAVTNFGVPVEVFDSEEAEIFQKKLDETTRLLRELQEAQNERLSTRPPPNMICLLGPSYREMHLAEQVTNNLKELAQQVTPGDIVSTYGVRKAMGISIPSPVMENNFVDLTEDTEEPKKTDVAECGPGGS
As to the kind of experiment: Binding affinity to human partial length BRD7 (L125 to R254 residues) expressed in mammalian expression system by BROMOscan assay.

In data set [9] the target is SWI/SNF-related matrix-associated actin-dependent regulator of chromatin subfamily A member 4 (Homo sapiens) (UniProt P51532). Briefly: Binding affinity to SMARCA4 in human HuT78 cells nuclear and chromatin extracts at 10 uM incubated for 45 mins by mass spectrometry based chemoproteomic binding assay. The format is cell-based.
Chain of SWI/SNF-related matrix-associated actin-dependent regulator of chromatin subfamily A member 4 (Homo sapiens) (P51532 whole entry, the tested form may be a part): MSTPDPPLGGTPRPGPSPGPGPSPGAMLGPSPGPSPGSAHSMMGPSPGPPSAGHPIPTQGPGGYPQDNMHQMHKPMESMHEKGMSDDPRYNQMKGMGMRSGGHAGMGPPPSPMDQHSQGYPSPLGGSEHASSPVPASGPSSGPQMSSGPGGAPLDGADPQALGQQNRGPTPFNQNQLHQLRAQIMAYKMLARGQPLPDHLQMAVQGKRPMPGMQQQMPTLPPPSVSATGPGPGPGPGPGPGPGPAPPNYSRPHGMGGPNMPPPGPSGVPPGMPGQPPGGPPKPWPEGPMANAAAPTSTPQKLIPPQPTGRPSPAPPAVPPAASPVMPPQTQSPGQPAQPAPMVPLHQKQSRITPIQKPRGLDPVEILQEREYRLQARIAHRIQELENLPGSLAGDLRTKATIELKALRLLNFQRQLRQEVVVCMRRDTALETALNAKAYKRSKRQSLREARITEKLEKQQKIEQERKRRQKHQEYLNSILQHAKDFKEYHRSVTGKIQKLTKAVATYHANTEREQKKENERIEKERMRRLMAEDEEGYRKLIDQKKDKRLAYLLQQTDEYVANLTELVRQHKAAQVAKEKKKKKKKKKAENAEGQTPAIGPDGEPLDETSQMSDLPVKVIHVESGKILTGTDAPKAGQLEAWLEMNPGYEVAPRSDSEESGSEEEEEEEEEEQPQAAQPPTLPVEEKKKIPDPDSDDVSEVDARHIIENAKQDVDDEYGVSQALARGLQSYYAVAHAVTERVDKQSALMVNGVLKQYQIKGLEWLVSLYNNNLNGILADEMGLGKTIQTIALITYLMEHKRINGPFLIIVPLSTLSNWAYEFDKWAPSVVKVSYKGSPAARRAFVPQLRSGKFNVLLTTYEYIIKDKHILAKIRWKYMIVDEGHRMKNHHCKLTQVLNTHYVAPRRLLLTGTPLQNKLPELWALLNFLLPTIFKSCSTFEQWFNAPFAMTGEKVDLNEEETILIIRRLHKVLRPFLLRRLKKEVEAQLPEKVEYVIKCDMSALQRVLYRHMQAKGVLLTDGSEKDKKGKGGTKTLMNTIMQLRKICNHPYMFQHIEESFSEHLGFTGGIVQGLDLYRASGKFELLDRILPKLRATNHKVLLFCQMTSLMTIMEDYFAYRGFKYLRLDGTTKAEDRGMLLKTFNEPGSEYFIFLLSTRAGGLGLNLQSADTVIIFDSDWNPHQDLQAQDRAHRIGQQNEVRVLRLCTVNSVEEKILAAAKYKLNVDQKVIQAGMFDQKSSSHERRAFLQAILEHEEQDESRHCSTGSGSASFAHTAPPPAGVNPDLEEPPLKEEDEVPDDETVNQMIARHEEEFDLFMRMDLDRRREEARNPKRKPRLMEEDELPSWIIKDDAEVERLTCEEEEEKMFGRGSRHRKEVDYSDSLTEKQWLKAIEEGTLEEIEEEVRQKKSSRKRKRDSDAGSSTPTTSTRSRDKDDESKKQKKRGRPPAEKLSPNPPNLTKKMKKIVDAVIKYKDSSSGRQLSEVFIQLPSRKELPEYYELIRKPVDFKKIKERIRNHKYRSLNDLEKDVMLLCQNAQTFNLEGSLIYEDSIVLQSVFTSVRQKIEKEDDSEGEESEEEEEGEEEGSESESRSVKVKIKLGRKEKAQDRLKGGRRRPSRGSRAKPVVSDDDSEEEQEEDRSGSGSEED
Data set [10] has as its target T3, Bromodomain-containing protein 4 (Homo sapiens, UniProt O60885). As to the kind of experiment: Binding affinity to human partial length BRD4 (1) (N44 to E168 residues) expressed in bacterial expression system by BROMOscan assay.
The target in data set [11] is T4, Bromodomain-containing protein 7 (Homo sapiens) (UniProt Q9NPI1).
T4 sequence (whole entry): T2 sequence (Q9NPI1 whole entry)
Briefly: Binding affinity to BRD7 in human HuT78 cells nuclear and chromatin extracts at 10 uM incubated for 45 mins by mass spectrometry based chemoproteomic binding assay. The class given is cell-based.

For data set [12], the target named is T5, Peregrin (Homo sapiens, UniProt P55201).
T5 sequence (P55201 whole entry): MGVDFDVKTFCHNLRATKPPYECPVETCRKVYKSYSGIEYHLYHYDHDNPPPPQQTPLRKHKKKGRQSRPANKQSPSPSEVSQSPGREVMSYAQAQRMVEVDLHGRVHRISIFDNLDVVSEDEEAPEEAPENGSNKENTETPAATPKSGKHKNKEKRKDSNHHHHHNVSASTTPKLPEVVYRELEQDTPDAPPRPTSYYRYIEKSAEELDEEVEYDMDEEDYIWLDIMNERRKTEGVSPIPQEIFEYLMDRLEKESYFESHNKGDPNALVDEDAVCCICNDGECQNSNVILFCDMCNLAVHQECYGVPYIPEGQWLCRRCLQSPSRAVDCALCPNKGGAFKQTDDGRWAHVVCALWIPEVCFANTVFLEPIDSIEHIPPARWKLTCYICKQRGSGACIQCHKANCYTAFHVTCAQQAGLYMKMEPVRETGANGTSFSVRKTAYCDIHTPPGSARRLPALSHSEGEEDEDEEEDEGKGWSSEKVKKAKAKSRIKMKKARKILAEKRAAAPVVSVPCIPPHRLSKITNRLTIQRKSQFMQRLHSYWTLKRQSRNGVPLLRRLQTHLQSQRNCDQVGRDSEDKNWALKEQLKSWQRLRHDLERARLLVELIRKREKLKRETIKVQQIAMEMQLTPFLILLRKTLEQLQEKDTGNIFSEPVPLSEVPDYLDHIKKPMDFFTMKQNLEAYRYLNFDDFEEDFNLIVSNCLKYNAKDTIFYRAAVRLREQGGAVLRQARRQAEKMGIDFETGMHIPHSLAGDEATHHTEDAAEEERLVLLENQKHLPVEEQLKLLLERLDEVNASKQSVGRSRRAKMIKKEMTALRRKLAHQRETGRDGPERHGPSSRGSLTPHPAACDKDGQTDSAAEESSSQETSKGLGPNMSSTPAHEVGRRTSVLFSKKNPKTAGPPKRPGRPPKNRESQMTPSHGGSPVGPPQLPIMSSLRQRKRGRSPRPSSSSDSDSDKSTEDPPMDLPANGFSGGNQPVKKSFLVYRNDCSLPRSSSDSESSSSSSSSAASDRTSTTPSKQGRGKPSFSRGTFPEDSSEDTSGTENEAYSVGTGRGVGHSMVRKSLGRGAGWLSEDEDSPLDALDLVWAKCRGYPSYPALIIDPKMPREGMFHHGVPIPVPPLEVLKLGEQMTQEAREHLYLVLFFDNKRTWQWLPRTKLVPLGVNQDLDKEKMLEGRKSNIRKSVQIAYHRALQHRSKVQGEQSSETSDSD
Briefly: Binding affinity to human partial length BRPF1 (E627 to G740 residues) expressed in bacterial expression system by BROMOscan assay.

In data set [13] the target is Protein polybromo-1 (Homo sapiens) (UniProt Q86U86). Briefly: Binding affinity to PBRM1 in human HuT78 cells nuclear and chromatin extracts at 10 uM incubated for 45 mins by mass spectrometry based chemoproteomic binding assay. The format is cell-based.
Chain of Protein polybromo-1 (Homo sapiens) (Q86U86 whole entry): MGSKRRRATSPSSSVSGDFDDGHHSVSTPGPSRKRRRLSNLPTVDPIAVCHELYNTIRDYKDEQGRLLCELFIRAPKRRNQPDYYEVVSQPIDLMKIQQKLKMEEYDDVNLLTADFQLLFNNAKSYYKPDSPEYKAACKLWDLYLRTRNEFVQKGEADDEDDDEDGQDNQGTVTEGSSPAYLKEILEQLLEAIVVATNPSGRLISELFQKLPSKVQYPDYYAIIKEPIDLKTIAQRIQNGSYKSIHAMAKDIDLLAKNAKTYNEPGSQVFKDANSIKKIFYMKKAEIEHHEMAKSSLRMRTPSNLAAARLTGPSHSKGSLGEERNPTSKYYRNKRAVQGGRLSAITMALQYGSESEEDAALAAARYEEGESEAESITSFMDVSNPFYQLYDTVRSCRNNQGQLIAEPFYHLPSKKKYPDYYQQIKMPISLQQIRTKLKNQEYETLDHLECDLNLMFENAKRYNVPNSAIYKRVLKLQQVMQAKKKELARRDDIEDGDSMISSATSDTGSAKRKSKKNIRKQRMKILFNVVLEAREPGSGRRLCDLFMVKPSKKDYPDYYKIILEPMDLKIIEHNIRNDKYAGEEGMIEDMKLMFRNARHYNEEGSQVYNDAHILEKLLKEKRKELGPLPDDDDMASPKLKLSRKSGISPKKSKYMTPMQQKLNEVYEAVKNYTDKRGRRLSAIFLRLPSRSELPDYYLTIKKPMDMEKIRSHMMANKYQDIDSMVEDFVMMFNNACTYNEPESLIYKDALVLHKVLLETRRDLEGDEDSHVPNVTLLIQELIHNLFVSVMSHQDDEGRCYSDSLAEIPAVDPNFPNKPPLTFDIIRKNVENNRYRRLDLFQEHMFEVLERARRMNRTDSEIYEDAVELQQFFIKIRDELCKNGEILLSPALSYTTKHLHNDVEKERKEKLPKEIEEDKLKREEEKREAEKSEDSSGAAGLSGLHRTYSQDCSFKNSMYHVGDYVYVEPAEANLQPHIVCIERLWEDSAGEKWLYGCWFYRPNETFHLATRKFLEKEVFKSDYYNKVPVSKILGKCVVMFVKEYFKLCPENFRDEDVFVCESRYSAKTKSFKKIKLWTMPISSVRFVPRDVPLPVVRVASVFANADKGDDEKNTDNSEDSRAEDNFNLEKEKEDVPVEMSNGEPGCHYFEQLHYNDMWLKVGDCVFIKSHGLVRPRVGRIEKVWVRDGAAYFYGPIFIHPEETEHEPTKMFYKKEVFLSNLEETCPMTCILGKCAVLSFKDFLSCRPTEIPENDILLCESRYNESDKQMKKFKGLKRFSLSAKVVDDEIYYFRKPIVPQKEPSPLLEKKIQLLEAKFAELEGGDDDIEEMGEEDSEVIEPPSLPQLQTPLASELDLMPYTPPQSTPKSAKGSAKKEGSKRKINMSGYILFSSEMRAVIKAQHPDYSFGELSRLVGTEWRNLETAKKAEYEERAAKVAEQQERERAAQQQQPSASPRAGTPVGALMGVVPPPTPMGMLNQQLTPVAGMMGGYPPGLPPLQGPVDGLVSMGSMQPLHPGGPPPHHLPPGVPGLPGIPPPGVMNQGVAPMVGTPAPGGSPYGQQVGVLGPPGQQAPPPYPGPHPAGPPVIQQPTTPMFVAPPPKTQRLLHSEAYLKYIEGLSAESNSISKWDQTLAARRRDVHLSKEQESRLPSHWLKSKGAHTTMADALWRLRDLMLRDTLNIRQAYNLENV
For data set [14], the target named is T1, Bromodomain-containing protein 9.
Description: Binding affinity to human partial length BRD9 (R130 to V259 residues) expressed in bacterial expression system by BROMOscan assay
The target of data set [15] is SWI/SNF-related matrix-associated actin-dependent regulator of chromatin subfamily A member 2 (Homo sapiens) (UniProt P51531). As to the kind of experiment: Binding affinity to SMARCA2 in human HuT78 cells nuclear and chromatin extracts at 10 uM incubated for 45 mins by mass spectrometry based chemoproteomic binding assay. The class given is cell-based.
Chain of SWI/SNF-related matrix-associated actin-dependent regulator of chromatin subfamily A member 2 (Homo sapiens) (P51531 whole entry): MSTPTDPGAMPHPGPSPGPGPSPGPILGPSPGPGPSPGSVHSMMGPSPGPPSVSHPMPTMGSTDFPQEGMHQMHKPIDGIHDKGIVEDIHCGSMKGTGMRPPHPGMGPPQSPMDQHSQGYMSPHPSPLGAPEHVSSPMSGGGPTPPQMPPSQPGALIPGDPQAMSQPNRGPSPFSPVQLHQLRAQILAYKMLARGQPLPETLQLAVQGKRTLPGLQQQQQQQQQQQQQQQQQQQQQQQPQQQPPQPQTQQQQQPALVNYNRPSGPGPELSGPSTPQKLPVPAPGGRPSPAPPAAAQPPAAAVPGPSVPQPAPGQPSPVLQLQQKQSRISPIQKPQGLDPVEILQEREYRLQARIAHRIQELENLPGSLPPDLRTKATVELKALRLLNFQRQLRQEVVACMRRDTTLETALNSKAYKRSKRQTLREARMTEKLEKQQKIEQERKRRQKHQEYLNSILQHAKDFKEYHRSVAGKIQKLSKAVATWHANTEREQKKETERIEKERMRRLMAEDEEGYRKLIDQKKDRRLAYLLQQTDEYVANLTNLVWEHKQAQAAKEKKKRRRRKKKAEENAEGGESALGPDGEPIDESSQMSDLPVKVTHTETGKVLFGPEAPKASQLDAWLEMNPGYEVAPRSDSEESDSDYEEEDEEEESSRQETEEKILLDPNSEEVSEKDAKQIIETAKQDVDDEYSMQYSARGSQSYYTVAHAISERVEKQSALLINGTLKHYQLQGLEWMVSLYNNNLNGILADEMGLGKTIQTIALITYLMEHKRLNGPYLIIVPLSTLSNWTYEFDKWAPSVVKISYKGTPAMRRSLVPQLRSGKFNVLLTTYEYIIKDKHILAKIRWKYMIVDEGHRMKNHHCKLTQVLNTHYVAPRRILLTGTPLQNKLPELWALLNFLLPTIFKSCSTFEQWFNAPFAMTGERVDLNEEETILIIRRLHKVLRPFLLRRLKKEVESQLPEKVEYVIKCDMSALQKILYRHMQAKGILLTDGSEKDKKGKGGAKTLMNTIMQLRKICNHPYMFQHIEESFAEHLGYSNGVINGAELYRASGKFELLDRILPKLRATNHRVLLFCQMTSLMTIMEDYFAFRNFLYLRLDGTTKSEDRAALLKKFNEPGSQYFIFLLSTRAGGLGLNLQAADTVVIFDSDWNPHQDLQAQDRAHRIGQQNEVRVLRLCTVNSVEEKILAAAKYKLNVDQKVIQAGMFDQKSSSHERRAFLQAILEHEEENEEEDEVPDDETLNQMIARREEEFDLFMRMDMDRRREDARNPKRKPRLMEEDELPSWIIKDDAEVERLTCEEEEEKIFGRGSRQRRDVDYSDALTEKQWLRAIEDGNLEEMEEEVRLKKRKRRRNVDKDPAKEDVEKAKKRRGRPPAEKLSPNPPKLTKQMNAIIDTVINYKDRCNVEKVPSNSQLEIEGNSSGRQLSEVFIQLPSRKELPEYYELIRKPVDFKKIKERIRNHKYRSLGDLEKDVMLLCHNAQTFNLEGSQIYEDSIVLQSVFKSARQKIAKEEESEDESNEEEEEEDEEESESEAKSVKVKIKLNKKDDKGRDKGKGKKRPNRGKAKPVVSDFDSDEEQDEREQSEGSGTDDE
Data set [16] concerns the target T3, Bromodomain-containing protein 4. Briefly: Binding affinity to BRD4 (1) (unknown origin) N-terminal bromodomain by TR-FRET assay.
For data set [17], the target named is T1, Bromodomain-containing protein 9. This is another data set of the same source.
Data set [18] has as its target T2, Bromodomain-containing protein 7. As to the kind of experiment: Binding affinity to BRD7 (unknown origin).
The species named for data set [19] is Homo sapiens. Briefly: Selectivity index, ratio of IC50 for binding affinity to PCAF (unknown origin) N-terminal bromodomain to IC50 for binding affinity to BRD9 (unknown origin) N-terminal bromodomain.
Data set [20] in a line: Drug distribution in human HeLa cells assessed as intracellular influx/efflux ratio by mass spectrometry. The format is ADME, cell-based.

Chain of B-cell CLL/lymphoma 7 protein family member B (Homo sapiens) (Q9BQE9 whole entry): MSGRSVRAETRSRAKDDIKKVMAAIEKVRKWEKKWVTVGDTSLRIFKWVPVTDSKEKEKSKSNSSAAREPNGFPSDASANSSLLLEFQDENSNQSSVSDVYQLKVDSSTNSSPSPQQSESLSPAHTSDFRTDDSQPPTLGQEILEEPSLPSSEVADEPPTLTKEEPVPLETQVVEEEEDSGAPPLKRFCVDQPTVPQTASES

For `Cc1c(NCc2ccccc2N2CCN(C)CC2)cnn(C)c1=O`, the result in data set [1], in data set [2], in data set [9], in data set [11], in [13] and in [15] was Active. Moreover, the chromatographic logD – broadly, lipophilicity estimated from chromatographic retention – in data set [3] was 1.6. Also, the results for the negative logarithm of the IC50 (pIC50) in [4] and in data set [16] were 6.70 and below 4.30, respectively. The Papp in [5] was determined as 33 ×10⁻⁶ cm/s. Besides, the fold selectivity in [6] is above 250. In [7], the kinetic solubility (as a rule, solubility judged after dilution from a stock solution rather than from solid) was 178 µg/mL (≈ 544 µM). Besides, the pKi (as a rule, −log10 of the Ki, conventionally taken in molar units) in data set [8] is 7.60; in data set [10] it was 4.60; in [12] it was 6.60; in data set [14] it was 7.40.
As to `C/C=C/Cn1cc(-c2cc(OC)c(C(=O)N3CCOCC3)cc2OC)c2cc[nH]c2c1=O`, the pKd (commonly the Kd on a negative log10 scale, so that one unit is a factor of ten) in data set [17] is 8.70; in [18], 7.00.
`Cn1ncc(NCc2ccccc2)c(Cl)c1=O`: the chromatographic logD in data set [3] stood at 3.2. The pIC50 (usually the IC50 on a negative log10 scale, so that one unit is a factor of ten) is 5.70 in [4] and 4.70 in data set [16]. Also, the fold selectivity was found to be 10 in data set [6] and 6 in [19].
Regarding `CCCCc1c(NCc2ccccc2N2CCN(C)CC2)cnn(C)c1=O`, in data set [20], the Ratio was 0.52. In data set [3], this compound displayed a chromatographic logD of 3.5. Further, the Papp in data set [5] was determined as 25 ×10⁻⁶ cm/s. The kinetic solubility in [7] was at least 228 µg/mL. For the same compound, the negative logarithm of the Ki (pKi) in data set [8] was 6.30; in data set [10], below 4.50; in data set [12] it was below 4.50; in data set [14], 7.20.
